Measured values taken from ChEMBL document CHEMBL3734746, “Monoamine oxidase inhibitory activities of heterocyclic chalcones” (Bioorg Med Chem Lett, 2015).

Assays:
[1] = biological target: T1, Amine oxidase [flavin-containing] A (Homo sapiens, UniProt P21397); test: Inhibition of human MAO-A expressed in baculovirus infected BT1 cells microsome fraction by fluorescence spectrometry
T1 sequence (P21397 whole entry): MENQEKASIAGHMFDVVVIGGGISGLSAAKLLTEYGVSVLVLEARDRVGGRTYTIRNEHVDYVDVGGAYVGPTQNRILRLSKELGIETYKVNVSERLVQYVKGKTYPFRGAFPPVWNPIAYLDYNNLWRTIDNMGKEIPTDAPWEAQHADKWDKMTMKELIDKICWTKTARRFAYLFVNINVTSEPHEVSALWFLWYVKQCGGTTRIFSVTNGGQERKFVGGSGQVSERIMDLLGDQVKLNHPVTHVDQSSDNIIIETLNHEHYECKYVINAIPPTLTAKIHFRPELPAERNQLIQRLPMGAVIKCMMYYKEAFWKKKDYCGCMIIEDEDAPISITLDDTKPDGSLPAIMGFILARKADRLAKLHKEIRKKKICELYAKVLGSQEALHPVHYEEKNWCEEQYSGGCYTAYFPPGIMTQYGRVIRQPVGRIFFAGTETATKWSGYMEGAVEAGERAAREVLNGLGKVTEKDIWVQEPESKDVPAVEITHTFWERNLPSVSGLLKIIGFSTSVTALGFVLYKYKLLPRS

Homo sapiens = organism: Homo sapiens; test: Selectivity index, ratio of IC50 for human MAO-A to IC50 for human MAO-B
[2] = biological target: T2, Amine oxidase [flavin-containing] B (Homo sapiens, UniProt P27338); test: Inhibition of human MAO-B expressed in baculovirus infected BT1 cells microsome fraction by fluorescence spectrometry
T2 sequence (P27338 whole entry): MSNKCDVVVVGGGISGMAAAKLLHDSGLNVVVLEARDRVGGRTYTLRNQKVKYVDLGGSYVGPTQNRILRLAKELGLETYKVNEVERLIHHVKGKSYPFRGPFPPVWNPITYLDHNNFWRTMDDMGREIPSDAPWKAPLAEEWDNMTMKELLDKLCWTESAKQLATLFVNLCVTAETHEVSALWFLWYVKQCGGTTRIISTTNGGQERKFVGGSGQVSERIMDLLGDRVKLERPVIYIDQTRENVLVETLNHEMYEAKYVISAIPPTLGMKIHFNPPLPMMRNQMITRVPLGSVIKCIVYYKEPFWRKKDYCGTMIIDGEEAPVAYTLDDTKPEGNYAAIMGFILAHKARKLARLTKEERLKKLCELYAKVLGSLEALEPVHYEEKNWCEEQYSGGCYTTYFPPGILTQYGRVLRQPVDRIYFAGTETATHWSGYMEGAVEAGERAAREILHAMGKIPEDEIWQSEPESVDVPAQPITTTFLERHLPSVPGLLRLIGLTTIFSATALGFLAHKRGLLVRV

[3] = Cytotoxicity against human HeLa cells assessed as viable cells at 1 uM by MTT assay; type: cell-based; settings: read-out: Activity
[4] = Cytotoxicity against human HeLa cells assessed as viable cells at 10 uM by MTT assay; type: cell-based; settings: read-out: Activity
[5] = biological target: T2, Amine oxidase [flavin-containing] B; test: Reversible inhibition of human MAO-B expressed in baculovirus infected BT1 cells microsome fraction assessed as enzyme activity recovered at 10 times of IC50 concentration preincubated for 30 mins followed by dilution to 0.1 times of IC50 concentration by fluorescence spectrometry; parameters: scale not given: the % may be the effect or the level left
[6] = biological target: T2, Amine oxidase [flavin-containing] B; test: Reversible inhibition of human MAO-B expressed in baculovirus infected BT1 cells microsome fraction assessed as enzyme activity recovered at 100 times of IC50 concentration preincubated for 30 mins followed by dilution to IC50 concentration by fluorescence spectrometry; parameters: scale not given: the % may be the effect or the level left
[7] = biological target: T1, Amine oxidase [flavin-containing] A; test: Reversible inhibition of human MAO-A expressed in baculovirus infected BT1 cells microsome fraction assessed as enzyme activity recovered at 10 times of IC50 concentration preincubated for 30 mins followed by dilution to 0.1 times of IC50 concentration by fluorescence spectrometry; parameters: scale not given: the % may be the effect or the level left
[8] = Cytotoxicity against human HeLa cells by MTT assay; type: cell-based
[9] = biological target: T1, Amine oxidase [flavin-containing] A; test: Reversible inhibition of human MAO-A expressed in baculovirus infected BT1 cells microsome fraction assessed as enzyme activity recovered at 100 times of IC50 concentration preincubated for 30 mins followed by dilution to IC50 concentration by fluorescence spectrometry; parameters: scale not given: the % may be the effect or the level left
[10] = biological target: T1, Amine oxidase [flavin-containing] A; test: Irreversible inhibition of human MAO-A expressed in baculovirus infected BT1 cells microsome fraction assessed as enzyme activity recovered at 10 times of IC50 concentration preincubated for 30 mins followed by dilution to 0.1 times of IC50 concentration by fluorescence spectrometry; parameters: scale not given: the % may be the effect or the level left
[11] = biological target: T2, Amine oxidase [flavin-containing] B; test: Inhibition of human MAO-B expressed in baculovirus infected BT1 cells microsome fraction assessed as residual enzyme activity at 4 times of IC50 concentration for 15 mins by fluorescence spectrometry relative to control; settings: 0.25 h
[12] = biological target: T2, Amine oxidase [flavin-containing] B; test: Reversible inhibition of human MAO-B expressed in baculovirus infected BT1 cells microsome fraction assessed as residual enzyme activity at 4 times of IC50 concentration preincubated for 15 mins followed by dialysis for 24 hrs by fluorescence spectrometry relative to control

Compound	IC50 [1] [µM]	Ratio IC50 (Homo sapiens)	IC50 [2] [µM]	other results
O=C(/C=C/c1ccc(F)c(Br)c1)c1ccc(Cl)s1	10.5	91	0.116	–
COc1ccc(C(=O)/C=C/c2ccc(Cl)s2)c(O)c1	9.99	54	0.185	–
O=C(/C=C/c1ccc(C(F)(F)F)cc1)c1ccc[nH]1	3.81	–	0.83	viability at 1 µM [3]: 77.5%; viability at 10 µM [4]: 4.66%; Activity [5]: 85%; Activity [6]: 32%; Activity [7]: 90%; CC50 [8]: 28.2 µM; Activity [9]: 67%
C#CCN(C)[C@H](C)Cc1ccccc1 [SELEGILINE]	–	–	–	Activity [10]: 1.2%
Cc1ccc(C(=O)/C=C/c2ccc(F)c(Br)c2)s1	16.1	240	0.067	viability at 1 µM [3]: 104%; viability at 10 µM [4]: 95.7%; Activity [5]: 26%; Activity [11]: 18%; Activity [6]: 5%; Activity [12]: 83%
COc1ccc(C(=O)/C=C/c2cccc(Cl)c2)cn1	15.3	46	0.33	–
O=C(/C=C/c1ccc(C(F)(F)F)cc1)c1ccc(Cl)s1	7.56	57	0.133	–
O=C(/C=C/c1ccc(F)c(Br)c1)c1ccc[nH]1	8.98	11	0.803	viability at 1 µM [3]: 99.4%; viability at 10 µM [4]: 98%; Activity [5]: 81%; Activity [6]: 60%
O=C(/C=C/c1cccc(Cl)c1)c1ccc[nH]1	143	44	3.27	–
O=C(/C=C/c1cccc(C(F)(F)F)c1)c1ccc[nH]1	267	191	1.4	–
C#CCN(C)Cc1ccccc1 [PARGYLINE]	–	–	–	Activity [10]: 1.2%
